Measurements: paper PMC12495443, “Developing inhibitors of the guanosine triphosphate hydrolysis accelerating activity of Regulator of G protein Signaling-14 [drawing 1]” (The Journal of Biological Chemistry, 2025)

Molecular target: T1, human RGS14 RGS-box (wild-type) (Homo sapiens, UniProt O43566)
T1 construct: human RGS14 RGS-box (aa 46–195 of UniProt O43566); host or cells: E. coli
T1 sequence (O43566 46-195): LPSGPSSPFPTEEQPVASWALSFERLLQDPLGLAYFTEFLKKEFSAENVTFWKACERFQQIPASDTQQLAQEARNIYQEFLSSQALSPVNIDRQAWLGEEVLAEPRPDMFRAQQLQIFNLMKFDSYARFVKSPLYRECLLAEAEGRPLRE
Assay: Transcreener GDP RGScreen fluorescence polarization assay of RGS14 RGS-box GAP activity on Gαi1(DM)
Assay type: biochemical
Conditions: wild-type RGS14 RGS-box GAP activity, Gαi1(DM), Transcreener GDP RGScreen; read-out: RGS14 pIC50 (converted)
Source text: We previously described work with BellBrook Labs creating the Transcreener GDP RGScreen fluorescence polarization assay of steady-state GTP hydrolysis, leveraging a double point-mutant in the Gα enzyme to make GTP hydrolysis, rather than GDP (product) release, the rate-limiting step for multiple rounds of GTP conversion ([57], [59]). […] Titrating inputs of the double point-mutant (“DM”) Gαi1 and RGS-box recombinant proteins (Fig. S2, B and C) established a robust, medium-throughput assay for evaluating potential RGS14 and RGS12 inhibitors, with “assay quality” Z′ scores ([60]) above 0.76 for each target (Fig. S2D).
Reagents and protocols for the fluorescence anisotropy-based Transcreener GDP RGScreen assay using a rate-altered, double point-mutant, recombinant Gαi1 protein have been extensively described previously ([43], [44]); reactions were always performed so that total GTP converted over the time course was consistently less than 10% of reaction maximum input. Specific methods for its application in assessing RGS14 and RGS12 GAP activity are summarized as follows. Open-reading frames (ORFs) encoding wild-type versions of the human RGS14 RGS-box (aa 46–195 of UniProt O43566) and human RGS12 RGS-box (aa 695–843 of UniProt O14924) were each sub-cloned in-frame with an N-terminal hexahistidine (His6) expression tag in the plasmid pET30a, expressed in E. coli cultures, and then purified by nickel-nitriloacetate (Ni-NTA) and size-exclusion (Superdex 200) column chromatographies by GenScript using previously described methods ([35]). These recombinant His6-tag fusion proteins were stored at −80 °C in storage buffer (150 mM NaCl, 50 mM Tris-HCl pH 8.0, 10% glycerol) before thawing and use. Cysteine-less versions were similarly produced by ORF site-directed mutagenesis: for RGS14, codons for cysteine residues 47 and 130 (numbered as in PDB id 2JNU) were replaced with serine codons; for RGS12, codons for cysteines 4, 51, 78, and 134 (numbered in relation to PDB id 2EBZ) were replaced with serine codons. Use of Transcreener GDP-detection reagents to assess compound inhibition of Naegleria fowleri Gα7 protein GTPase activity ([83]) has previously been described ([84]).

SMILES | IC50
COc1ccc(C(=O)C(Sc2nc3ccccc3n2C)c2ccc(OC)cc2)cc1 (stereo not drawn) [Z15478257] | > 1000 µM
CCOc1ccc(C(=O)C(C)Sc2nc3ccccc3n2C)cc1 (stereo not drawn) [Z15479255] | > 1000 µM
COc1ccc2nc(SC(C)C(=O)c3ccc4c(c3)CCC4)[nH]c2c1 (stereo not drawn) [Z16076970] | > 1000 µM
COc1ccc2nc(SC(C)C(=O)Nc3ccc(C)cc3)[nH]c2c1 (stereo not drawn) [Z16077036] | > 1000 µM
COc1ccc2nc(SC(C)C(=O)c3ccc(NC(C)=O)cc3)[nH]c2c1 (stereo not drawn) [Z16077185] | > 1000 µM
COc1ccc2nc(SC(C)C(=O)c3ccccc3)[nH]c2c1 (stereo not drawn) [Z16077228] | > 1000 µM
COc1ccc2nc(SC(C)C(=O)c3cccc(Cl)c3)[nH]c2c1 (stereo not drawn) [Z16077229] | > 1000 µM
COc1ccc2nc(SC(C)C(=O)c3ccc(OC(F)F)cc3)[nH]c2c1 (stereo not drawn) [Z16077231] | > 1000 µM
COc1ccc2nc(SC(C)C(=O)c3cc(C)ccc3C)[nH]c2c1 (stereo not drawn) [Z16077483] | > 1000 µM
COc1ccc2nc(SC(C)C(=O)c3ccc(C)c(C)c3)[nH]c2c1 (stereo not drawn) [Z16077488] | > 1000 µM
CCc1ccc(C(=O)C(C)Sc2nc3ccc(OC)cc3[nH]2)cc1 (stereo not drawn) [Z16077530] | > 1000 µM
COc1ccc2nc(SC(C)C(=O)c3cc(C)c(C)cc3C)[nH]c2c1 (stereo not drawn) [Z16077531] | > 1000 µM
COc1ccc2nc(SC(C)C(=O)c3ccc(F)c(F)c3)[nH]c2c1 (stereo not drawn) [Z16077536] | > 1000 µM
COc1ccc2nc(SC(C)C(=O)c3ccc(C(C)(C)C)cc3)[nH]c2c1 (stereo not drawn) [Z16077565] | > 1000 µM
COc1ccc2nc(SC(C)C(=O)c3ccc(Br)cc3)[nH]c2c1 (stereo not drawn) [Z16077584] | > 1000 µM
COc1ccc(C(=O)C(C)Sc2nc3ccc(OC)cc3[nH]2)c(OC)c1 (stereo not drawn) [Z16077640] | > 1000 µM
COc1ccc(C(=O)C(C)Sc2nc3ccc(OC)cc3[nH]2)cc1 (stereo not drawn) [Z16077705] | > 1000 µM
COc1ccc2nc(SC(C)C(=O)c3ccc(F)cc3)[nH]c2c1 (stereo not drawn) [Z16077798] | > 1000 µM
COc1ccc2nc(SCCC(=O)c3ccc(F)cc3)[nH]c2c1 [Z16077963] | > 1000 µM
COc1ccc2nc(SCC(=O)c3ccc(F)cc3)[nH]c2c1 [Z16077977] | > 1000 µM
COCCn1c(SC(C)C(=O)c2ccc(Br)cc2)nc2ccccc21 (stereo not drawn) [Z16216100] | > 1000 µM
COCCn1c(SC(C)C(=O)c2ccc(OC)cc2)nc2ccccc21 (stereo not drawn) [Z16216221] | > 1000 µM
CCn1c(SC(C)C(=O)c2ccc3c(c2)CCC3)nc2cc(S(=O)(=O)N3CCOCC3)ccc21 (stereo not drawn) [Z16669629] | > 1000 µM
CCn1c(SC(C)C(=O)c2ccccc2)nc2cc(S(=O)(=O)N3CCOCC3)ccc21 (stereo not drawn) [Z16669878] | > 1000 µM
Cc1ccc2[nH]c(SC(C)C(=O)c3ccc(OC(F)F)cc3)nc2c1 (stereo not drawn) [Z18443016] | > 1000 µM

SMILES | IC50
CCc1ccc(C(=O)C(C)Sc2nc3cc(C)ccc3[nH]2)cc1 (stereo not drawn) [Z18443315] | > 1000 µM
Cc1ccc2[nH]c(SC(C)C(=O)c3ccc(F)cc3)nc2c1 (stereo not drawn) [Z18443583] | > 1000 µM
CCCCn1c(SC(C(=O)c2ccc(OC)cc2)c2ccc(OC)cc2)nc2cc(S(N)(=O)=O)ccc21 (stereo not drawn) [Z19162246] | > 1000 µM
COc1ccc(-n2c(SC(C)C(=O)c3cc(C)ccc3C)nc3ccccc32)cc1 (stereo not drawn) [Z19576483] | > 1000 µM
COc1ccc(-n2c(SC(C)C(=O)c3cc(C)c(C)cc3C)nc3ccccc32)cc1 (stereo not drawn) [Z19576531] | > 1000 µM
CCOc1ccc2[nH]c(SCCC(=O)c3ccc(F)cc3)nc2c1 [Z19828508] | > 1000 µM
CCn1c(SC(C)C(=O)c2ccc(NS(C)(=O)=O)cc2)nc2ccccc21 (stereo not drawn) [Z50932618] | > 1000 µM
CC(Sc1nc2ccccc2n1C)C(=O)c1ccc(NS(C)(=O)=O)cc1 (stereo not drawn) [Z50932699] | > 1000 µM
COc1ccc2nc(SC(C)C(=O)c3ccc(NC(=O)C(C)(C)C)cc3)[nH]c2c1 (stereo not drawn) [Z50965385] | > 1000 µM
CCCC(=O)Nc1ccc(C(=O)C(C)Sc2nc3ccc(OC)cc3[nH]2)cc1 (stereo not drawn) [Z50965416] | > 1000 µM
CCn1c(SC(C)C(=O)c2ccc3c(c2)CCC3)nc2cc(S(N)(=O)=O)ccc21 (stereo not drawn) [Z51418316] | > 1000 µM
CCn1c(SC(C)C(=O)c2ccc(NC(C)=O)cc2)nc2cc(S(N)(=O)=O)ccc21 (stereo not drawn) [Z51418527] | > 1000 µM
CCn1c(SC(C)C(=O)c2cccc(Cl)c2)nc2cc(S(N)(=O)=O)ccc21 (stereo not drawn) [Z51418566] | > 1000 µM
CCn1c(SC(C)C(=O)c2ccc(Cl)cc2)nc2cc(S(N)(=O)=O)ccc21 (stereo not drawn) [Z51418567] | > 1000 µM
CCn1c(SC(C)C(=O)c2cc(C)ccc2C)nc2cc(S(N)(=O)=O)ccc21 (stereo not drawn) [Z51418807] | > 1000 µM
CCc1ccc(C(=O)C(C)Sc2nc3cc(S(N)(=O)=O)ccc3n2CC)cc1 (stereo not drawn) [Z51418852] | > 1000 µM
CCn1c(SC(C)C(=O)c2ccc(Br)cc2)nc2cc(S(N)(=O)=O)ccc21 (stereo not drawn) [Z51418902] | > 1000 µM
CCn1c(SC(C)C(=O)c2ccc(OC)cc2)nc2cc(S(N)(=O)=O)ccc21 (stereo not drawn) [Z51419018] | > 1000 µM
CCn1c(SC(C)C(=O)c2ccc(F)cc2)nc2cc(S(N)(=O)=O)ccc21 (stereo not drawn) [Z51419107] | > 1000 µM
CCOc1ccc(C(=O)C(C)Sc2nc3cc(S(N)(=O)=O)ccc3n2CC)cc1 (stereo not drawn) [Z51419689] | > 1000 µM
CC(Sc1nc2ccccc2n1C(C)C)C(=O)c1ccc(C(C)C)cc1C(C)C (stereo not drawn) [Z54156331] | > 1000 µM
CCOc1ccc2nc(SCC(=O)c3ccc(CC)cc3)[nH]c2c1 [Z55030990] | > 1000 µM
COc1ccc2nc(SCC(O)c3ccccc3)[nH]c2c1 (stereo not drawn) [Z56784116] | > 1000 µM
COc1ccc2nc(SC(C)C(=O)c3ccc(NC(=O)C(C)C)cc3)[nH]c2c1 (stereo not drawn) [Z65841956] | > 1000 µM
COc1ccc2nc(SC(C)C(=O)N(C)C)[nH]c2c1 (stereo not drawn) [Z92077129] | > 1000 µM

SMILES | IC50
COc1ccc2nc(SC(C)C(=O)c3[nH]c(C)c(C(C)=O)c3C)[nH]c2c1 (stereo not drawn) [Z98717471] | > 1000 µM
COc1ccc2nc(SC(C)C(=O)Nc3ccc(F)cc3F)[nH]c2c1 (stereo not drawn) [Z112468618] | > 1000 µM
COc1ccc2nc(SC(C)C(=O)Nc3cc(F)ccc3F)[nH]c2c1 (stereo not drawn) [Z112468620] | > 1000 µM
COc1ccc2nc(SCC(=O)c3ccc(O)cc3)[nH]c2c1 [Z112468740] | > 1000 µM
CC(=O)N1CCc2cc(C(=O)C(C)Sc3nc4cc(C)ccc4[nH]3)ccc21 (stereo not drawn) [Z165332254] | > 1000 µM
CCn1c(SC(C)C(=O)c2ccc3c(c2)CCN3C(C)=O)nc2ccccc21 (stereo not drawn) [Z165501154] | > 1000 µM
COCCn1c(SC(C)C(=O)c2ccc3c(c2)CCN3C(C)=O)nc2ccccc21 (stereo not drawn) [Z165550978] | > 1000 µM
COc1ccc2nc(SC(C)C(=O)c3ccc4c(c3)CCN4C(C)=O)[nH]c2c1 (stereo not drawn) [Z165591262] | > 1000 µM
COc1ccc2nc(SC(C)C(=O)c3ccc(F)cc3F)[nH]c2c1 (stereo not drawn) [Z167736700] | > 1000 µM
Cc1ccc2[nH]c(SC(C)C(=O)c3ccc(F)cc3F)nc2c1 (stereo not drawn) [Z167804418] | > 1000 µM
COc1ccc2[nH]c(SCC(=O)c3ccc(O)c(O)c3)nc2c1 [Z223822242] | > 1000 µM
COc1ccc2[nH]c(SC(C(N)=O)c3ccc(F)cc3)nc2c1 (stereo not drawn) [Z234729962] | > 1000 µM
CCC(Sc1nc2ccc(OC)cc2[nH]1)C(=O)c1ccccc1 (stereo not drawn) [Z447938100] | > 1000 µM
COc1ccc2nc(SC(C)C(=O)c3ccc(OC)c(OC)c3)[nH]c2c1 (stereo not drawn) [Z940567722] | > 1000 µM
CCn1c(SC(C)C(=O)c2c(F)cc(F)cc2F)nc2ccccc21 (stereo not drawn) [Z1098345881] | > 1000 µM
Cc1ccc2[nH]c(SC(C)C(=O)c3c(F)cc(F)cc3F)nc2c1 (stereo not drawn) [Z1098347474] | > 1000 µM
COc1ccc2nc(SCCOCC3CCCO3)[nH]c2c1 (stereo not drawn) [Z1258859165] | > 1000 µM
CCC(Sc1nc2ccc(OC)cc2[nH]1)C(=O)c1ccc(NC(C)=O)cc1 (stereo not drawn) [Z1340653159] | > 1000 µM
COc1ccc2nc(SC(C)C(=O)c3ccco3)[nH]c2c1 (stereo not drawn) [Z3277796272] | > 1000 µM
CCn1c(SC(C)C(=O)c2c(F)cc(F)cc2F)nc2cc(S(=O)(=O)N3CCCCC3)ccc21 (stereo not drawn) [Z5032180738] | > 1000 µM
Cc1ccc2[nH]c(SC(C)C(=O)c3cccc(F)c3)nc2c1 (stereo not drawn) [Z5032180743] | > 1000 µM
COc1ccc(C(=O)C(C)Sc2nc3cc(C)ccc3[nH]2)cc1Cl (stereo not drawn) [Z5032180749] | > 1000 µM
COc1ccc(-n2c(SC(C)C(=O)c3c(F)cc(F)cc3F)nc3ccccc32)cc1 (stereo not drawn) [Z5032180751] | > 1000 µM
COc1ccc2nc(SC(C)C(=O)c3cccc(F)c3)[nH]c2c1 (stereo not drawn) [Z5032180758] | > 1000 µM
COc1ccc2nc(SC(C(=O)OC(C)(C)C)C(C)C)[nH]c2c1 (stereo not drawn) [Z5032180761] | > 1000 µM
